Measured values reported in patent publication US20200339604A1, “PYRAZOLOPYRIMIDINE COMPOUNDS AS JAK INHIBITORS” (Genentech, Inc., priority 2018, published 2020).
Read-outs that look alike come from different tables or passages of the source.

Experiments:
[1] = target: T1, isolated recombinant JAK1 kinase domain (Homo sapiens, UniProt P23458); assay: JAK enzyme assay, JAK1 kinase domain (Caliper LabChip); format: biochemical; settings: 1.5 nM JAK1, ATP 25 μM, Morrison tight binding model
T1 construct: isolated recombinant JAK1 and JAK2 kinase domain
T1 sequence (P23458 875-1153 limits assumed): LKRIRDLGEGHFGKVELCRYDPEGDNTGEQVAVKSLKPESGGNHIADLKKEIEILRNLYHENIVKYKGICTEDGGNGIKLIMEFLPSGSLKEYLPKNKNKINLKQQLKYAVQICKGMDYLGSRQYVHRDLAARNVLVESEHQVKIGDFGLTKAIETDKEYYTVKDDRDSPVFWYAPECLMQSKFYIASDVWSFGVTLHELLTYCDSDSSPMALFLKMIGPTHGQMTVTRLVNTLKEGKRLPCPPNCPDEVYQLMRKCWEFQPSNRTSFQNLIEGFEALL
Method: (§1) JAK Enzyme Assays were Carried Out as Follows:
(§2) The activity of the isolated recombinant JAK1 and JAK2 kinase domain was measured by monitoring phosphorylation of a peptide derived from JAK3 ([…] fluorescently labeled on the N-terminus with 5-carboxyfluorescein) using the Caliper LabChip® technology (Caliper Life Sciences, Hopkinton, Mass.). To determine inhibition constants (K), compounds were diluted serially in DMSO and added to 50 μL kinase reactions containing purified enzyme (1.5 nM JAK1, or 0.2 nM JAK2), 100 mM HEPES buffer (pH 7.2), 0.015% Brij-35, 1.5 μM peptide substrate, ATP (25 μM), 10 mM MgCl2, 4 mM DTT at a final DMSO concentration of 2%.
(§3) Reactions were incubated at 22° C. in 384-well polypropylene microtiter plates for 30 minutes and then stopped by addition of 25 µL of an EDTA containing solution (100 mM HEPES buffer (pH 7.2), 0.015% Brij-35, 150 mM EDTA), resulting in a final EDTA concentration of 50 mM. After termination of the kinase reaction, the proportion of phosphorylated product was determined as a fraction of total peptide substrate using the Caliper LabChip® 3000 according to the manufacturer's specifications. K values were then determined using the Morrison tight binding model (Morrison, J. F., Biochim. Biophys. Acta. 185:269-296 (1969); William, J. W. and Morrison, J. F., Meth. Enzymol., 63:437-467 (1979)) modified for ATP-competitive inhibition [Ki=Ki, app/(1+[ATP]/Km,app)].

[2] = system: JAK1-dependent STAT6 phosphorylation downstream of IL-13 stimulation, BEAS-2B human bronchial epithelial cells; assay: JAK1 pathway assay in cell lines: IL-13 stimulated STAT6 phosphorylation in BEAS-2B cells (MSD); format: cell-based; settings: IL-13 stimulation 15 min at EC90, read-out: IL-13 p-STAT6 BEAS-2B IC50
Method: JAK1 Pathway Assay in Cell Lines was Carried Out as Follows:
Inhibitor potency (EC50) was determined in cell-based assays designed to measure JAK1 dependent STAT phosphorylation. As noted above, inhibition of IL-4, IL-13, and IL-9 signaling by blocking the Jak/Stat signaling pathway can alleviate asthmatic symptoms in pre-clinical lung inflammation models (Mathew et al., 2001, J Exp Med 193(9): 1087-1096; Kudlacz et. al., 2008, Eur J. Pharmacol 582(1-3): 154-161).
In one assay approach, TF-1 human erythroleukemia cells obtained from the American Type Culture Collection (ATCC; Manassas, Va.) were used to measure JAK1-dependent STAT6 phosphorylation downstream of IL-13 stimulation. Prior to use in the assays, TF-1 cells were starved of GM-CSF overnight in OptiMEM medium (Life Technologies, Grand Island, N.Y.) supplemented with 0.5% charcoal/dextran stripped fetal bovine serum (FBS), 0.1 mM non-essential amino acids (NEAA), and 1 mM sodium pyruvate. The assays were run in 384-well plates in serum-free OptiMEM medium using 300,000 cells per well. In a second assay approach, BEAS-2B human bronchial epithelial cells obtained from ATCC were plated at 100,000 cells per well of a 96-well plate one day prior to the experiment. The BEAS-2B assay was run in complete growth medium (bronchial epithelial basal medium plus bulletkit; Lonza; Basel, Switzerland).
Test compounds were serially diluted 1:2 in DMSO and then diluted 1:50 in medium just before use. Diluted compounds were added to the cells, for a final DMSO concentration of […], and incubated for 30 m (for the TF-1 assay) or […] (for the BEAS-2B assay) at 37° C. Then, cells were stimulated with human recombinant cytokine at their respective EC90 concentrations, as previously determined for each individual lot. Cells were stimulated with IL-13 (R&D Systems, Minneapolis, Minn.) for 15 min at 37° C. The TF-1 cell reactions were stopped by the direct addition of 10× lysis buffer (Cell Signaling Technologies, Danvers, Mass.), whereas the BEAS-2B cell incubations were halted by the removal of medium and addition of 1× lysis buffer. The resultant samples were frozen in the plates at −80° C. Compound mediated inhibition of STAT6 phosphorylation was measured in the cell lysates using MesoScale Discovery (MSD) technology (Gaithersburg, Md.).

[3] = target: T2, isolated recombinant JAK2 kinase domain (Homo sapiens, UniProt O60674); assay: JAK enzyme assay, JAK2 kinase domain (Caliper LabChip); format: biochemical; settings: 0.2 nM JAK2, ATP 25 μM, Morrison tight binding model
T2 construct: isolated recombinant JAK1 and JAK2 kinase domain
T2 sequence (O60674 849-1124 limits assumed): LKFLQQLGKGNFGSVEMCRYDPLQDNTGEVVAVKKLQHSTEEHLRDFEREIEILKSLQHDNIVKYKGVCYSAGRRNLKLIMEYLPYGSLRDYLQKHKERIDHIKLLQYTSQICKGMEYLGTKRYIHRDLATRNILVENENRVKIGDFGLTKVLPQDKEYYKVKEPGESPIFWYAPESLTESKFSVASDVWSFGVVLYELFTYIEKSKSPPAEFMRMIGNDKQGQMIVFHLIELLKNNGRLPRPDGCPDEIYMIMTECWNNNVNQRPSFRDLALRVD
Method: as §1, §2, §3

Row | SMILES | Ki [1] [nM] | IC50 [2] [nM] | Ki [3] [nM] | IC50 ([2]; Homo sapiens, BEAS-2B, […]) [nM]
1 | CN1CCC(n2cc(NC(=O)c3cnn4cccnc34)c(-c3cc4c(cc3OC(F)F)NCCO4)n2)C1=O (single isomer, unassigned) [Example 11, N-[3-[6-(difluoromethoxy)-3,4-dihydro-2H-1,4-benzoxazin-7-yl]-1-(1-methyl-2-oxo-pyrrolidin-3-yl)pyrazol-4-yl]pyrazolo[1,5-a]pyrimidine-3-carboxamide] | 1.2 | 230 | 0.5 | 
2 | CN1CCC(n2cc(NC(=O)c3cnn4cccnc34)c(-c3cc4c(cc3OC(F)F)NCCS4)n2)C1=O (single isomer, unassigned) [Example 13, N-[3-[6-(difluoromethoxy)-3,4-dihydro-2H-1,4-benzothiazin-7-yl]-1-(1-methyl-2-oxo-pyrrolidin-3-yl)pyrazol-4-yl]pyrazolo[1,5-a]pyrimidine-3-carboxamide] | 0.88 | 290 | 0.43 | 
3 | O=C(Nc1cn(C2CCN(CCN3CCOCC3)C2=O)nc1-c1cc(Cl)ccc1OC(F)F)c1cnn2cccnc12 (single isomer, unassigned) [Example 14, N-[3-[5-chloro-2-(difluoromethoxy)phenyl]-1-[1-(2-morpholinoethyl)-2-oxo-pyrrolidin-3-yl]pyrazol-4-yl]pyrazolo[1,5-a] pyrimidine-3-carboxamide] | 1.2 |  | 1.4 | 79
4 | CN1CCN(C(=O)CN2CCC(n3cc(NC(=O)c4cnn5cccnc45)c(-c4cc(Cl)ccc4OC(F)F)n3)C2=O)CC1 (single isomer, unassigned) [Example 16, N-[3-[5-chloro-2-(difluoromethoxy)phenyl]-1-[1-[2-(4-methylpiperazin-1-yl)-2-oxo-ethyl]-2-oxo-pyrrolidin-3-yl]pyrazol-4-yl]pyrazolo[1,5-a]pyrimidine-3-carboxamide] | 2.8 |  | 0.68 | 200
5 | CN1CCN(C(=O)CN2CCC(n3cc(NC(=O)c4cnn5cccnc45)c(-c4cc(Cl)ccc4OC(F)F)n3)C2=O)CC1 (single isomer, unassigned) [Example 17, N-[3-[5-chloro-2-(difluoromethoxy)phenyl]-1-[1-[2-(4-methylpiperazin-1-yl)-2-oxo-ethyl]-2-oxo-pyrrolidin-3-yl]pyrazol-4-yl]pyrazolo[1,5-a]pyrimidine-3-carboxamide] | 2.6 | 300 | 1.5 | 
6 | CN1CCC(n2cc(NC(=O)c3cnn4cccnc34)c(-c3cc(SC(F)F)ccc3OC(F)F)n2)C1=O (single isomer, unassigned) [Example 18, N-[3-[2-(difluoromethoxy)-5-(difluoromethyl-sulfanyl)phenyl]-1-(1-methyl-2-oxo-pyrrolidin-3-yl)pyrazol-4-yl]pyrazolo[1,5-a]pyrimidine-3-carboxamide] | 0.28 | 15 | 0.39 | 
7 | CN1CCC(n2cc(NC(=O)c3cnn4cccnc34)c(-c3cc(SC(F)F)ccc3OC(F)F)n2)C1=O (single isomer, unassigned) [Example 19, N-[3-[2-(difluoromethoxy)-5-(difluoromethyl-sulfanyl)phenyl]-1-(1-methyl-2-oxo-pyrrolidin-3-yl)pyrazol-4-yl]pyrazolo[1,5-a]pyrimidine-3-carboxamide] | 2.5 | 59 | 0.55 | 
8 | CN1CCCC(n2cc(NC(=O)c3cnn4cccnc34)c(-c3cc(Cl)ccc3OC(F)F)n2)C1=O (single isomer, unassigned) [Example 20, N-[3-[5-chloro-2-(difluoromethoxy)phenyl]-1-(1-methyl-2-oxo-3-piperidyl)pyrazol-4-yl]pyrazolo[1,5-a]pyrimidine-3-carboxamide] | 0.48 | 24 | 1.5 | 
9 | CN1CCCC(n2cc(NC(=O)c3cnn4cccnc34)c(-c3cc(Cl)ccc3OC(F)F)n2)C1=O (single isomer, unassigned) [Example 21, N-[3-[5-chloro-2-(difluoromethoxy)phenyl]-1-(1-methyl-2-oxo-3-piperidyl)pyrazol-4-yl]pyrazolo[1,5-a]pyrimidine-3-carboxamide] | 4.1 | 74 | 2.1 | 
